{
  "source": "paper PMC6449043",
  "about": "(ACS chemical biology, 2018)",
  "target": "ndSQR (sulfide quinone oxidoreductase in nanodiscs) (Homo sapiens, UniProt Q9Y6N5)",
  "sequence (Q9Y6N5 42-450)": "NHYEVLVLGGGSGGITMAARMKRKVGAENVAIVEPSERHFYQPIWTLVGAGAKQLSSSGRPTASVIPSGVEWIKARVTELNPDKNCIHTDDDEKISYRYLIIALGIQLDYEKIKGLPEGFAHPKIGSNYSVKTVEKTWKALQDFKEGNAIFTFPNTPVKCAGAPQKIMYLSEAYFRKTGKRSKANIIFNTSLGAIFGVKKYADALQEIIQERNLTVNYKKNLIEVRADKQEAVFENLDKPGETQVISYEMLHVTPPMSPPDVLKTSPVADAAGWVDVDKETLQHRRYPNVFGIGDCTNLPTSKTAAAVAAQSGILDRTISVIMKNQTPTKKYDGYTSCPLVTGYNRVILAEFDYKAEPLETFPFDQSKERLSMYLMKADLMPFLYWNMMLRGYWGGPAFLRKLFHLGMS",
  "test": "spectral titration of charge-transfer complex at […] nm",
  "type": "binding",
  "data": [
    {"smiles": "CS", "note": "[MeSH]", "values": [
      {"measurement": "Kd", "result": "38 ± 1", "unit": "µM"}
    ]}
  ]
}
